The structures appear in SMILES notation. Structures can show the parent of a compound that is named as a salt.

Experiment [1] addresses T1, human mitochondrial NAD(P)+-dependent malic enzyme (m-NAD(P)-ME, ME2) (Homo sapiens, UniProt P23368). Kind of experiment: enzyme activation assay ([…] nm), purified enzyme; allosteric-site mutant controls. The note with it: read-out: ^3 ^, ^4m-NAD(P)-ME WT.
In experiment [2] the target is T1, human mitochondrial NAD(P)+-dependent malic enzyme (m-NAD(P)-ME, ME2). Kind of experiment: spectrophotometric NADH assay at […] nm; fumarate competition/rescue; allosteric-site mutant controls. The experiment is classed as biochemical.

T1 sequence (P23368 19-584): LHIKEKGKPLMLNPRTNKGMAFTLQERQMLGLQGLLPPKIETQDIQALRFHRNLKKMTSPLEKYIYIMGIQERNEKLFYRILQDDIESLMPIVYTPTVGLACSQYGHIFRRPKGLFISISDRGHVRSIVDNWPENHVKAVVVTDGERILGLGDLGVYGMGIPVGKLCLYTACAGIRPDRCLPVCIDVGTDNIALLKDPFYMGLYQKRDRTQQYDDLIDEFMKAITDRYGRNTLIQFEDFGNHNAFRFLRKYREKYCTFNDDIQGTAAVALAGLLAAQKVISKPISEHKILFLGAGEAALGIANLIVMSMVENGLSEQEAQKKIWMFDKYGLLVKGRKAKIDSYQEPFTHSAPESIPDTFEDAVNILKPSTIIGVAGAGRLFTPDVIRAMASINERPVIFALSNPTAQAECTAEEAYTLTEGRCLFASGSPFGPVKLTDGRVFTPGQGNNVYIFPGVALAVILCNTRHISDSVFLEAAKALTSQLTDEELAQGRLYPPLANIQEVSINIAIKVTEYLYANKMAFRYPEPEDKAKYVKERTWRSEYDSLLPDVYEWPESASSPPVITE

For `COC(=O)/C=C/C(=O)O` [Monomethyl fumarate], in experiment [1], the fold induction at 5000 µM is 2.78 ± 0.08.
`C/C(=C\C(=O)O)C(=O)O` [Mesaconate]: the fold induction at 20000 µM in experiment [1] turned out to be 1.75 ± 0.16.
On to `CCOC(=O)/C=C/C(=O)O` [Monoethyl fumarate], for which the fold induction at 10000 µM in experiment [1] came out at 1.83 ± 0.04.
As usually defined, the IC50 is the concentration needed to halve the response being measured. Read a low IC50 as higher potency. Compound `CCOC(=O)/C=C(\O)C(=O)OCC` [diethyl oxalacetate] showed an IC50 in experiment [2] of around 2500 µM.

For the origin of these results see PMC4049574 (PLoS ONE, 2014).
